Data as given in publication PMC7736042, “Quinazolinones as Competitive Inhibitors of Carbonic Anhydrase-II (Human and Bovine): Synthesis, in-vitro, in-silico, Selectivity, and Kinetics Studies” (Frontiers in Chemistry, 2020).

Experiments:
[1] = target: human carbonic anhydrase-II (hCA-II) (Homo sapiens, UniProt P00918); assay: In-vitro hCA-II inhibition, spectrophotometric p-nitrophenyl acetate assay; assay type: biochemical; conditions: for IC50: NA = Not active; for selectivity hCA-II versus bCA-II: from in-vitro results on bCA-II and hCA-II
[2] = target: bovine carbonic anhydrase-II (bCA-II) (Bos taurus, UniProt P00921); assay: In-vitro bCA-II inhibition, spectrophotometric p-nitrophenyl acetate assay; assay type: biochemical; conditions: for IC50 / IC50 ± SEM: NA = Not active
Experimental: Each inhibitory well-consisted of 140 μL of HEPES-Tris buffer solution, 20 μL of bCA-II enzyme solution (0.1 mg/mL HEPES-Tris buffer), and 20 μL of test compound in HPLC grade DMSO (maintain 10% of the final concentration). […] Substrate p-nitrophenyl acetate (p-NPA) (0.7 mM) was prepared in HPLC grade methanol and the reaction was started by adding 20 μL to a well in a 96-well-plate. The amount of product formed was measured for 30 min continuously at 1 min intervals at 400 nm in a 96-well-plate using xMARK microplate spectrophotometer, Bio-Rad (USA). The activity of the controlled compound was taken as 100%. All experiments were carried out in triplicates of each used concentration, and results are represented as a mean of the triplicate.

hCA-II = hCA-II (Homo sapiens, UniProt P00918); assay: Kinetics study on hCA-II (Lineweaver-Burk, secondary replot, Dixon plot); assay type: biochemical
Experimental: (§1) To investigate the mechanism of action of these compounds, kinetics studies were performed. The kinetics studies were used to discover the type of inhibition and dissociation constant (Ki). […] From the kinetics studies, it was deduced that the compound 4d is a competitive inhibitor for both bCA-II and hCA-II. The Lineweaver-Burk plots were used for determination of the type of inhibition, in which the reciprocal of substrate concentrations was plotted against the reciprocal of the rate of the reaction to monitor the effect of the inhibitor on both Km and Vmax. […] In competitive inhibition, the Km of enzyme increased, while Vmax are not affected.
(§2) Figure 3 The mode of inhibition of hCA-II by compound 4d. […] (B) Secondary re-plot of Lineweaver–Burk plot between the slopes of each line on Lineweaver–Burk plot vs. different concentrations of compound 4d. (C) Dixon plot of reciprocal rate of reaction (velocities) vs. different concentrations of compound 4d.
(§3) The Ki values of compounds 4d for both enzymes bCA-II and hCA-II were deduced by secondary replots of Lineweaver-Burk plots by plotting the slope of each line in the Lineweaver-Burk plots against different concentrations of compound 4d (Figures 2B, 3B). The Ki values were confirmed by Dixon plot after plotting the reciprocal of the rate of reaction against different concentrations of compound 4d (Figures 2C, 3C).

bCA-II = bCA-II (Bos taurus, UniProt P00921); assay: Kinetics study on bCA-II (Lineweaver-Burk, secondary replot, Dixon plot); assay type: biochemical, bovine
Experimental: as §1
as §2, with “2” for “3”, “bCA-II” for “hCA-II”
as §3

[3] = substrate p-nitrophenyl acetate

bovine carbonic anhydrase-II (bCA-II), sequence (P00921 whole entry): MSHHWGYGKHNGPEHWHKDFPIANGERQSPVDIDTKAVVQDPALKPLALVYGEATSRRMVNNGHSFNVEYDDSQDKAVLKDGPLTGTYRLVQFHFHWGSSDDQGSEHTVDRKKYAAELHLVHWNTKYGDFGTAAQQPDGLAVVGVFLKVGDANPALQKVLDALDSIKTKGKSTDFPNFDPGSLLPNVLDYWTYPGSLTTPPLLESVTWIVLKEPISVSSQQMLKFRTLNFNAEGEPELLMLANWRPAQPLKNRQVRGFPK
bCA-II, sequence (P00921 whole entry): as above

% Inhibition (0.5 mM) ([1]; hCA-II, 0.5 mM)	% Inhibition (0.5 mM) ([2]; 0.5 mM)	IC50 [2]	melting point	inhibition at 500 µM ([1]; hCA-II, 0.5 mM)	IC50 ([1]; hCA-II)	inhibition at 500 µM ([2]; 0.5 mM)	mode of inhibition (hCA-II; Lineweaver-Burk plot)	Ki (hCA-II; [3])	mode of inhibition (bCA-II; Lineweaver-Burk plot)	Ki (bCA-II; [3])	selectivity hCA-II versus bCA-II [1]	IC50 ± SEM [2]	Molecule
38.1%	83.6%	67.3 ± 0.42 µM	–	–	–	–	–	–	–	–	–	–	3-Amino-2-(Napthalen-1-yl) Quinazolin-4(3H)-one [Compound 4b]
–	–	53.6 ± 0.85 µM	200 to 202 °C	75.2%	59.6 ± 1.03 µM	75.2%	–	–	–	–	–	–	Nn1c(-c2ccccc2)nc2ccccc2c1=O [Compound 4a, 3-Amino-2-Phenylquinazolin-4(3H)-one]
–	–	11.7 ± 0.36 µM	180 to 182 °C	88.5%	21.1 ± 1.36 µM	80.5%	–	–	–	–	–	–	Nn1c(-c2ccccc2[N+](=O)[O-])nc2ccccc2c1=O [Compound 4c, 3-Amino-2-(2-Nitrophenyl) Quinazolin-4(3H)-one]
–	–	19.7 ± 1.02 µM	206 to 208 °C	94.2%	21.5 ± 0.52 µM	92.9%	competitive	14.25 ± 0.017 µM	competitive	13 ± 0.013 µM	–	–	Nn1c(-c2cccc([N+](=O)[O-])c2)nc2ccccc2c1=O [Compound 4d, 3-Amino-2-(3-Nitrophenyl) Quinazolin-4(3H)-one]
–	–	17.9 ± 0.56 µM	204 to 206 °C	98.9%	43.5 ± 1.51 µM	88.9%	–	–	–	–	–	–	Nn1c(-c2ccccc2Br)nc2ccccc2c1=O [Compound 4f, 3-Amino-2-(2-Bromophenyl) Quinazolin-4(3H)-one]
–	–	33.6 ± 0.22 µM	184 to 185 °C	85.3%	14 ± 0.6 µM	85.3%	–	–	–	–	more selective inhibitors for hCA-II	–	Nn1c(-c2ccc(Br)cc2)nc2ccccc2c1=O [Compound 4g, 3-Amino-2-(4-Bromophenyl) Quinazolin-4(3H)-one]
–	–	38 ± 0.62 µM	294 to 296 °C	92.4%	53 ± 2.12 µM	92.4%	–	–	–	–	–	–	Cc1ccc(-c2nc3ccccc3c(=O)n2N)cc1 [Compound 4h, 3-Amino-2-(4-Methylphenyl) Quinazolin-4(3H)-one]
–	–	–	169 to 170 °C	27.8%	–	17.6%	–	–	–	–	–	inactive	Nn1c(-c2ccccc2F)nc2ccccc2c1=O [Compound 4i, 3-Amino-2-(2-Fluorophenyl) Quinazolin-4(3H)-one]
–	–	46.6 ± 0.39 µM	164 to 165 °C	28.1%	–	78.6%	–	–	–	–	–	–	Nn1c(-c2cccc(F)c2)nc2ccccc2c1=O [Compound 4j, 3-Amino-2-(3-Fluorophenyl) Quinazolin-4(3H)-one]
–	–	18.3 ± 0.51 µM	176 to 178 °C	36.2%	–	76.3%	–	–	–	–	–	–	Nn1c(-c2ccc(F)cc2)nc2ccccc2c1=O [Compound 4k, 3-Amino-2-(4-Fluorophenyl) Quinazolin-4(3H)-one]
–	–	10.7 ± 0.82 µM	160 to 162 °C	28.7%	–	78.2%	–	–	–	–	–	–	Nn1c(-c2ccccc2Cl)nc2ccccc2c1=O [Compound 4l, 3-Amino-2-(2-Chlorophenyl) Quinazolin-4(3H)-one]
–	–	8.9 ± 0.31 µM	144 to 145 °C	30.5%	–	60%	–	–	–	–	–	–	Nn1c(-c2cccc(Cl)c2)nc2ccccc2c1=O [Compound 4m, 3-Amino-2-(3-Chlorophenyl) Quinazolin-4(3H)-one]
–	–	28.2 ± 0.01 µM	165 to 166 °C	24.3%	–	54.2%	–	–	–	–	–	–	Nn1c(-c2ccc(Cl)cc2)nc2ccccc2c1=O [Compound 4n, 3-Amino-2-(4-Chlorophenyl) Quinazolin-4(3H)-one]
–	–	–	–	89.4%	22 ± 0.4 µM	19.9%	–	–	–	–	more selective inhibitors for hCA-II	inactive	COc1ccc(-c2nc3ccccc3c(=O)n2N)cc1 [Compound 4o, 3-Amino-2-(4-Methoxyphenyl) Quinazolin-4(3H)-one]
–	–	26.8 ± 0.23 µM	–	27.4%	–	87.3%	–	–	–	–	–	–	COc1cc(-c2nc3ccccc3c(=O)n2N)cc(OC)c1OC [Compound 4p, 3-Amino-2-(3,4,5-Trimethoxyphenyl) Quinazolin-4(3H)-one]

Molecule	% Inhibition (0.5 mM) ([1]; hCA-II, 0.5 mM)	% Inhibition (0.5 mM) ([2]; 0.5 mM)	IC50 [2]	melting point	inhibition at 500 µM ([1]; hCA-II, 0.5 mM)	IC50 ([1]; hCA-II)	inhibition at 500 µM ([2]; 0.5 mM)	mode of inhibition (hCA-II; Lineweaver-Burk plot)	Ki (hCA-II; [3])	mode of inhibition (bCA-II; Lineweaver-Burk plot)	Ki (bCA-II; [3])	selectivity hCA-II versus bCA-II [1]	IC50 ± SEM [2]
Nn1c(-c2ccc([N+](=O)[O-])cc2)nc2ccccc2c1=O [Compound 4e, 3-Amino-2-(4-nitrophenyl) quinazolin-4(3H)-one]	–	–	9.1 ± 0.21 µM	224 to 225 °C	92.7%	39.9 ± 2.21 µM	80.7%	–	–	–	–	–	–
